Data set [1] addresses T1, Solute carrier organic anion transporter family member 1B1 (Homo sapiens, UniProt Q9Y6L6).
T1 sequence (Q9Y6L6 whole entry): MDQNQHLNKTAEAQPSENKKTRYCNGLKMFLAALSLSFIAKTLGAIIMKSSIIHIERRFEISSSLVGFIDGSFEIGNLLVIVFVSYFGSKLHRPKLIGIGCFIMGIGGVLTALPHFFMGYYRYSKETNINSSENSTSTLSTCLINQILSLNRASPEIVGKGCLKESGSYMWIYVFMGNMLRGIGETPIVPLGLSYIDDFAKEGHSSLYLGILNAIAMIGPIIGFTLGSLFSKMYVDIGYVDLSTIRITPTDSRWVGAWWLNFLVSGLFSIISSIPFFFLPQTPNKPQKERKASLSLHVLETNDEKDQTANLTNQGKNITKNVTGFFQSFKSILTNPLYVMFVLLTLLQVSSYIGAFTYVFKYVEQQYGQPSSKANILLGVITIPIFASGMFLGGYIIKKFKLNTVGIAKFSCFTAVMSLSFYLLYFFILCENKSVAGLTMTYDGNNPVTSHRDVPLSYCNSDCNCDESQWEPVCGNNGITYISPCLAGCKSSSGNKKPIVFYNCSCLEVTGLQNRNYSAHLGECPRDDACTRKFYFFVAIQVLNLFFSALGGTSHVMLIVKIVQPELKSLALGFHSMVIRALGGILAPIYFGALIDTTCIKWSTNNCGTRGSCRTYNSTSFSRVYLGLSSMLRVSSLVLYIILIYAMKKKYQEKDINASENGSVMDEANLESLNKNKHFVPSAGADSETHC
The settings on record: chinese hamster, cho, 10 µM.

The target of data set [2] is T2, Solute carrier organic anion transporter family member 1B3 (Homo sapiens, UniProt Q9NPD5).
T2 sequence (Q9NPD5 whole entry): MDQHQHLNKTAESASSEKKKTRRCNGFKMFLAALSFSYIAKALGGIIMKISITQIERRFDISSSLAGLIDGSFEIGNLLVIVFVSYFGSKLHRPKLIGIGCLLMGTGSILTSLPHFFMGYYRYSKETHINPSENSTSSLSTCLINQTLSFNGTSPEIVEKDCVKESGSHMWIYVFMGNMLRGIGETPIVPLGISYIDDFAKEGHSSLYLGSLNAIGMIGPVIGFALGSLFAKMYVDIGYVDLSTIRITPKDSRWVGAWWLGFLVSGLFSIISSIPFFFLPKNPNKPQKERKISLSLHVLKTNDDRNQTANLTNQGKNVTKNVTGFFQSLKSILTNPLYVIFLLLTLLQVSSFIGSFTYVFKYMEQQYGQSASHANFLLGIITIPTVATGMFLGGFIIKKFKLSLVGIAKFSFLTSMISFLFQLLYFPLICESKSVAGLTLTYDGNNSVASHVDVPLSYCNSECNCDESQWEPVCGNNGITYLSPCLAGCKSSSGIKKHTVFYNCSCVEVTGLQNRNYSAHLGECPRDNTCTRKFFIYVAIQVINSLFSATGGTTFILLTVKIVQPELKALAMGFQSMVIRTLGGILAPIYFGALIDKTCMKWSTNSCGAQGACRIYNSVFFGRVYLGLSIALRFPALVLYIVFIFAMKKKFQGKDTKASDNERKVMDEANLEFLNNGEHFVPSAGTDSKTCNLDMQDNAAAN
Conditions: chinese hamster, cho, 10 µM.

Structures can show the parent of a compound that is named as a salt. Residues, ends and D or L forms follow the SMILES beside them. *: point of attachment. Tfa = O=C(C(F)(F)F)*

The residual activity is the signal under treatment as a percentage of the control signal.

As for `Cc1cccc(N(C)C(=S)Oc2ccc3ccccc3c2)c1` [TOLNAFTATE], the results for the residual activity in data set [1] and in data set [2] were 126.3% and 119%, respectively.
Taken in the same sequence, the figures for `Cc1ccc(C(=O)C(C)CN2CCCCC2)cc1.Cl` (stereo not given) [TOLPERISONE HYDROCHLORIDE] were 96.3% and 112.7%.
Turning to `C[C@H]1CC[C@]2(NC1)O[C@H]1C[C@H]3[C@@H]4CC[C@H]5C[C@@H](O[C@@H]6O[C@H](CO)[C@H](O[C@@H]7O[C@H](CO)[C@@H](O)[C@H](O[C@@H]8OC[C@@H](O)[C@H](O)[C@H]8O)[C@H]7O[C@@H]7O[C@H](CO)[C@@H](O)[C@H](O)[C@H]7O)[C@H](O)[C@H]6O)CC[C@]5(C)[C@H]4CC[C@]3(C)[C@H]1[C@@H]2C` [TOMATINE], the figures for the residual activity in data set [1] and in data set [2] were 96.72% and 100.3%, respectively.
Turning to `CC1(C)O[C@@H]2[C@@H](CO[C@@]3(COS(N)(=O)=O)OC(C)(C)O[C@@H]23)O1` [TOPIRAMATE], the residual activity in data set [1] is 93.31%; in data set [2], 106.5%.
Consider `Cc1cccc(Nc2ccncc2S(=O)(=O)NC(=O)NC(C)C)c1` [TORSEMIDE], for which the figures for the residual activity in data set [1] and in data set [2] were 73.9% and 73.29%, respectively.
Taken in the same sequence, the figures for `CC(C)c1c(O)ccc2c1CC[C@H]1[C@@](C)(C=O)CCC[C@]21C` [TOTARAL] were 80.52% and 100.9%.
Take `CC(C)c1c(O)ccc2c1CC[C@H]1C(C)(C)CCC[C@]21C` [TOTAROL]: the residual activity was determined as 159.4% in data set [1] and 131.3% in data set [2].
For `CC1(C)C(C(Cl)Cl)C2(Cl)C(Cl)C(Cl)C1(Cl)C2(Cl)Cl` (stereo not given) [TOXAPHENE], the residual activity in data set [1] is 111.3%; in data set [2] it was 109.5%.
On to `CCOC(=O)[C@H](CCc1ccccc1)N[C@@H](C)C(=O)N1[C@H](C(=O)O)C[C@H]2CCCC[C@@H]21` [TRANDOLAPRIL], for which the residual activity in data set [1] was 118%; in data set [2] it was 102.1%.
On to `NC[C@H]1CC[C@H](C(=O)O)CC1` [TRANEXAMIC ACID], for which the residual activity in data set [1] turned out to be 81.79%; in data set [2], 102.3%.
`Cl.N[C@@H]1C[C@H]1c1ccccc1` [TRANYLCYPROMINE HYDROCHLORIDE]: the residual activity in data set [1] was found to be 80.64%; in data set [2], 89.57%.
`N[C@@H]1C[C@H]1c1ccccc1.N[C@H]1C[C@@H]1c1ccccc1.O=S(=O)(O)O` [TRANYLCYPROMINE SULFATE]: the residual activity in data set [1] was determined as 73.89%; in data set [2] it was 84.19%.
In the case of `Cl.O=c1n(CCCN2CCN(c3cccc(Cl)c3)CC2)nc2ccccn12` [TRAZODONE HYDROCHLORIDE], the residual activity in data set [1] stood at 98.06%; in data set [2] it was 111.6%.
`CC(=O)OCC(COC(C)=O)OC(C)=O` [TRIACETIN]: the results for the residual activity in data set [1] and in data set [2] were 98.2% and 86.74%, respectively.
As for `CC(=O)Oc1ccc(/C=C/c2cc(OC(C)=O)cc(OC(C)=O)c2)cc1` [TRIACETYLRESVERATROL], the residual activity in data set [1] was determined as 160.6%; in data set [2] it was 143.6%.
In the case of `CC(C)(C)C(=O)C(Oc1ccc(Cl)cc1)n1cncn1` (stereo not given) [TRIADIMEFON], the residual activity worked out at 75.79% in data set [1] and 87.3% in data set [2].
With `CC(C)N(C(=O)SCC(Cl)=C(Cl)Cl)C(C)C` [TRIALLATE], the residual activity came to 119.9% in data set [1] and 109.6% in data set [2].
Turning to `CC1(C)O[C@@H]2C[C@H]3[C@@H]4CCC5=CC(=O)C=C[C@]5(C)[C@@]4(F)[C@@H](O)C[C@]3(C)[C@]2(C(=O)CO)O1` [TRIAMCINOLONE ACETONIDE], the residual activity was 128.1% in data set [1] and 115.5% in data set [2].
Regarding `CC(=O)OCC(=O)[C@@]1(O)[C@H](OC(C)=O)C[C@H]2[C@@H]3CCC4=CC(=O)C=C[C@]4(C)[C@@]3(F)[C@@H](O)C[C@@]21C` [TRIAMCINOLONE DIACETATE], the residual activity in data set [1] is reported as 98.08%; in data set [2], 104.9%.
In the case of `C[C@]12C=CC(=O)C=C1CC[C@H]1[C@@H]3C[C@@H](O)[C@](O)(C(=O)CO)[C@@]3(C)C[C@H](O)[C@@]12F` [TRIAMCINOLONE], the residual activity in data set [1] came out at 70.81%; in data set [2], 81.81%.
For `O=c1cc(-c2cc(O)c(O)c(O)c2)oc2cc(O)cc(O)c12` [TRICETIN], the figures for the residual activity in data set [1] and in data set [2] were 79.5% and 127.6%, respectively.
`NS(=O)(=O)c1cc2c(cc1Cl)NC(C(Cl)Cl)NS2(=O)=O` (stereo not given) [TRICHLORMETHIAZIDE]: the residual activity was 81.82% in data set [1] and 86.79% in data set [2].
On to `CCCN(CCC)c1c([N+](=O)[O-])cc(C(F)(F)F)cc1[N+](=O)[O-]` [TRIFLURALIN], for which the residual activity in data set [1] is 93.6%; in data set [2], 102.7%.
Turning to `O=c1[nH]c(=O)n([C@H]2C[C@H](O)[C@@H](CO)O2)cc1C(F)(F)F` [TRIFLURIDINE], the residual activity in data set [1] was 64.99%; in data set [2] it was 84.35%.
`C[n+]1cccc(C(=O)[O-])c1` [TRIGONELLINE]: the residual activity in data set [1] amounted to 111.6%; in data set [2] it was 98.34%.
For `COc1cc(C(=O)NCc2ccc(OCCN(C)C)cc2)cc(OC)c1OC.Cl` [TRIMETHOBENZAMIDE HYDROCHLORIDE], the residual activity is reported as 111% in data set [1] and 140.2% in data set [2].
Regarding `COc1cc(Cc2cnc(N)nc2N)cc(OC)c1OC` [TRIMETHOPRIM], the residual activity in data set [1] worked out at 82.92%; in data set [2], 97.26%.
With `CC(CN(C)C)CN1c2ccccc2CCc2ccccc21.O=C(O)/C=C\C(=O)O` (stereo not given) [TRIMIPRAMINE MALEATE], the residual activity is reported as 93.52% in data set [1] and 103.3% in data set [2].
Regarding `Cc1cc2cc3c(C)cc(=O)oc3c(C)c2o1` [TRIOXSALEN], the residual activity in data set [1] was 103.1%; in data set [2], 86.89%.
As to `CN(C)CCN(Cc1ccccc1)c1ccccn1.O=C(O)CC(O)(CC(=O)O)C(=O)O` [TRIPELENNAMINE CITRATE], the residual activity in data set [1] stood at 81.25%; in data set [2], 93.75%.
For `CC(C)[C@]12O[C@H]1[C@@H]1O[C@@]13[C@@]1(C)CCC4=C(COC4=O)[C@@H]1C[C@@H]1O[C@@]13C2=O` [TRIPTONIDE], the residual activity amounted to 74.69% in data set [1] and 84.23% in data set [2].
For `CC(C)c1ccc2c(c1O)CC[C@H]1C3=C(CC[C@]21C)C(=O)OC3` [TRIPTOPHENOLIDE], the figures for the residual activity in data set [1] and in data set [2] were 120.3% and 110.8%, respectively.
For the compound `CCN(Cc1ccncc1)C(=O)C(CO)c1ccccc1` (stereo not given) [TROPICAMIDE], the values for the residual activity in data set [1] and in data set [2] were 75.11% and 81.94%, respectively.
In the case of `C[C@@H]1O[C@@H](OC[C@H]2O[C@@H](Oc3c(-c4ccc(OCCO)c(OCCO)c4)oc4cc(OCCO)cc(O)c4c3=O)[C@H](O)[C@@H](O)[C@@H]2O)[C@H](O)[C@H](O)[C@H]1O` [TROXERUTIN], the residual activity in data set [1] amounted to 61.9%; in data set [2], 49.51%.
With `NCCc1c[nH]c2ccccc12` [TRYPTAMINE], the residual activity in data set [1] worked out at 101%; in data set [2], 104.1%.
`c1ccc2c3c([nH]c2c1)CNCC3` [TRYPTOLINE]: the residual activity in data set [1] is on record as 99.4%; in data set [2], 98.72%.
In the case of `N[C@@H](Cc1c[nH]c2ccccc12)C(=O)O` [TRYPTOPHAN], the residual activity in data set [1] is 93.19%; in data set [2], 97.09%.
Regarding `C=C(C)C1Cc2c(ccc(C(=O)O)c2O)O1` (stereo not given) [TUBAIC ACID], the residual activity in data set [1] is 158.2%; in data set [2] it was 80.8%.
For `NCCc1ccc(O)cc1` [TYRAMINE], in that order: 59.9% and 85.38%.
For `CC(C)[C@H](NC(=O)[C@H](Cc1ccc(O)cc1)NC(=O)[C@@H](NC(=O)C(F)(F)F)C(C)C)C(=O)O` [Tfa-VAL-TYR-VAL-OH] (Tfa-Val-Tyr-Val-OH), the residual activity came to 108% in data set [1] and 96.81% in data set [2].

The record behind these values is ChEMBL document CHEMBL3039007, “Structure-based identification of OATP1B1/3 inhibitors” (Mol Pharmacol, 2013).
